Consider 44 compounds from patent US20220324865A1 (Bayer Aktiengesellschaft, priority 2018, published 2022).

As a reminder, the IC50 is the concentration at which inhibition is half-maximal.

For the assay, the target named is T1, human EP3 receptor (Homo sapiens, UniProt P43115).
T1 construct: expressed in transfected cells; host or cells: CHO K1 (Chinese Hamster Ovary), stably co-transfected with Galpha16 and mitochondrial clytin
T1 sequence (P43115 1-390): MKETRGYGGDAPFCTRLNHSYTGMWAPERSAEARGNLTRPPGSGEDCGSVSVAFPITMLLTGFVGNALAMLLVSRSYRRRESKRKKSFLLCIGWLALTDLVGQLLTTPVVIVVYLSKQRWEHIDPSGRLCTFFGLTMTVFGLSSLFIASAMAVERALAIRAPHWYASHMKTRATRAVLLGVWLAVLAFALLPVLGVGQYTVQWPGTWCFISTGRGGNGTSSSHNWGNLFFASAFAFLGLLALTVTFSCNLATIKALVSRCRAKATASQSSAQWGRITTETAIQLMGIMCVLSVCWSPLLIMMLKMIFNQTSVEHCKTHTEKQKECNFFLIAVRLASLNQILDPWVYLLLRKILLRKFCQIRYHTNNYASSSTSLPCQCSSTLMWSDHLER
The experiment in a line: Cellular in vitro assay for determining EP3 receptor activity (human EP3 cell line, sulprostone-stimulated calcium luminescence). The conditions noted are these: CHO cells expressing human EP3 and mitochondrial Clytin; antagonist mode, sulprostone at EC50; read-out: EP3 CHO mtCLY ANTAG IC50. It counts as cell-based. The protocol: B-1. Cellular In Vitro Assay for Determining EP3 Receptor Activity
The identification of antagonists of the EP3 receptor from humans and rats as well as the quantification of the activity of the compounds of the invention was carried out using recombinant cell lines. These cell lines originally derive from a hamsters ovary epithelial cell (Chinese Hamster Ovary, CHO K1, ATCC: American Type Culture Collection, Manassas, Va. 20108, USA). The test cell lines constitutively express the human or rat EP3 receptors. The naturally Gαi-coupled human and rat EP3 receptors were stably co-transfected with Gα16 into cells that are also stably transfected with a mitochondrial form of the calcium-sensitive photoproteins Clytin (human EP3) or Photina (rat EP3), which, after reconstitution with the cofactor coelenterazine, emit light when there are increases in free calcium concentrations (Nature 1992, 358, 325-327; Gene 1995, 153 (2), 273-274). The resulting EP3 receptor cells react to stimulation of the recombinantly expressed EP3 receptors by the agonist sulprostone with intracellular release of calcium ions, which can be quantified by the resulting photoprotein luminescence. Antagonists inhibit the receptor signaling, leading to reduced calcium release and luminescence. The bioluminescence of the cell lines is detected using a suitable luminometer (Trends Pharmacol. Sci. 1996, 17, 235-237).
Human and Rat EP3 Cell Lines:
On the day before the assay, the cells are plated out in culture medium (OptiMEM, 1% FCS, 2 mM glutamine, 10 mM HEPES, 5 μg/ml coelenterazine) in 384-well microtiter plates and kept in a cell incubator (96% humidity, 5% v/v CO2, 37° C.). On the day of the assay, test compounds in various concentrations are placed for 10 minutes in the wells of the microtiter plate before the agonist sulprostone at EC50 concentration is added. The resulting light signal is measured immediately in a luminometer. All concentrations are measured in quadruples.
`Cc1ccc(-c2cn3nc(C(=O)NC(C)C4CCC4)c(C(F)(F)F)c3c(=O)[nH]2)cc1Cl` (single isomer, unassigned) [6-194]: the IC50 is 2.55 nM.

Consider `Cc1ccc(-c2cn3nc(C(=O)NC(C)C4CCC4)c(C(F)(F)F)c3c(=O)[nH]2)cc1Cl` (single isomer, unassigned) [6-195], for which the IC50 was 1.55 nM.

Regarding `Cc1cc(-c2cn3nc(C(=O)NC(c4ccc(F)cc4)C4(O)CC4)c(C(F)(F)F)c3c(=O)[nH]2)ccc1Cl` (single isomer, unassigned) [6-211], the IC50 came to 1.18 nM.

As for `Cc1cc(-c2cn3nc(C(=O)NC(c4ccc(F)cc4)C4(O)CC4)c(C(F)(F)F)c3c(=O)[nH]2)ccc1Cl` (single isomer, unassigned) [6-212], the IC50 was 8.15 nM.

On to `Cc1cc(-c2cn3nc(C(=O)NC(C)C4CCC4)c(C(F)(F)F)c3c(=O)[nH]2)ccc1Cl` (single isomer, unassigned) [6-223], for which the IC50 amounted to 1.25 nM.

Take `Cc1cc(-c2cn3nc(C(=O)NC(C)C4CCC4)c(C(F)(F)F)c3c(=O)[nH]2)ccc1Cl` (single isomer, unassigned) [6-224]: the IC50 stood at 2 nM.

Consider `Cc1cc(-c2cn3nc(C(=O)NC4CCN(C5CC5)C4)c(C(F)(F)F)c3c(=O)[nH]2)ccc1Cl` (single isomer, unassigned) [6-241], for which the IC50 is 9.5 nM.

With `Cc1ccc(-c2cn3nc(C(=O)NCC(O)C(F)(F)F)c(C4CC4)c3c(=O)[nH]2)cc1C(F)(F)F` (single isomer, unassigned) [6-244], the IC50 came to 5.55 nM.

Take `Cc1ccc(-c2cn3nc(C(=O)NCC(O)C(F)(F)F)c(C4CC4)c3c(=O)[nH]2)cc1C(F)(F)F` (single isomer, unassigned) [6-245]: the IC50 amounted to 1.35 nM.

Turning to `Cc1ccc(-c2cn3nc(C(=O)NC(CO)C(F)(F)F)c(C4CC4)c3c(=O)[nH]2)cc1C(F)(F)F` (single isomer, unassigned) [6-249], the IC50 is 3 nM.

Take `Cc1ccc(-c2cn3nc(C(=O)NC(CO)C(F)(F)F)c(C4CC4)c3c(=O)[nH]2)cc1C(F)(F)F` (single isomer, unassigned) [6-250]: the IC50 is 6.3 nM.

On to `Cc1ccc(-c2cn3nc(C(=O)NCC(O)C(F)(F)F)c(C4CC4)c3c(=O)[nH]2)cc1Cl` (single isomer, unassigned) [6-259], for which the IC50 was determined as 0.64 nM.

Consider `Cc1ccc(-c2cn3nc(C(=O)NCC(O)C(F)(F)F)c(C4CC4)c3c(=O)[nH]2)cc1Cl` (single isomer, unassigned) [6-260], for which the IC50 was 0.82 nM.

Regarding `CCN1CCC(NC(=O)c2nn3cc(-c4ccc(Cl)c(C)c4)[nH]c(=O)c3c2C2CC2)(C(F)(F)F)C1` (single isomer, unassigned) [6-293], the IC50 was found to be 5.7 nM.

On to `CCN1CCC(NC(=O)c2nn3cc(-c4ccc(Cl)c(C)c4)[nH]c(=O)c3c2C2CC2)(C(F)(F)F)C1` (single isomer, unassigned) [6-294], for which the IC50 came out at 9.95 nM.

Turning to `Cc1cc(-c2cn3nc(C(=O)NC(C)C4CCC4)c(C4CC4)c3c(=O)[nH]2)ccc1Cl` (single isomer, unassigned) [6-299], the IC50 came to 4.4 nM.

For the compound `Cc1cc(-c2cn3nc(C(=O)NC(C)C4CCC4)c(C4CC4)c3c(=O)[nH]2)ccc1Cl` (single isomer, unassigned) [6-300], the IC50 was found to be 3.3 nM.

In the case of `Cc1cc(-c2cn3nc(C(=O)NC(CO)C(F)(F)F)c(C4CC4)c3c(=O)[nH]2)ccc1Cl` (single isomer, unassigned) [6-308], the concentration for half-maximal inhibition (IC50) amounted to 2.55 nM.

In the case of `Cc1cc(-c2cn3nc(C(=O)NCCC(O)C(F)(F)F)c(C4CC4)c3c(=O)[nH]2)ccc1Cl` (single isomer, unassigned) [6-310], the IC50 came to 0.91 nM.

As to `Cc1cc(-c2cn3nc(C(=O)NCCC(O)C(F)(F)F)c(C4CC4)c3c(=O)[nH]2)ccc1Cl` (single isomer, unassigned) [6-311], the IC50 is 1.05 nM.

Take `Cc1cc(-c2cn3nc(C(=O)NCC(O)C(F)(F)F)c(C4CC4)c3c(=O)[nH]2)ccc1Cl` (single isomer, unassigned) [6-313]: the IC50 came out at 1.65 nM.

Take `Cc1cc(-c2cn3nc(C(=O)NCC(O)C(F)(F)F)c(C4CC4)c3c(=O)[nH]2)ccc1Cl` (single isomer, unassigned) [6-314]: the IC50 was 0.85 nM.

Turning to `Cc1cc(-c2cn3nc(C(=O)NCC(C)(N)C(F)(F)F)c(C4CC4)c3c(=O)[nH]2)ccc1Cl` (single isomer, unassigned) [6-320], the IC50 stood at 1.35 nM.

Consider `Cc1cc(-c2cn3nc(C(=O)NCC(C)(N)C(F)(F)F)c(C4CC4)c3c(=O)[nH]2)ccc1Cl` (single isomer, unassigned) [6-321], for which the IC50 was found to be 1.7 nM.

Turning to `Cc1cc(-c2cn3nc(C(=O)N[C@H]4CCN(C5CC5)C4)c(C4CC4)c3c(=O)[nH]2)ccc1Cl` (single isomer, unassigned) [6-323], the IC50 turned out to be 3.3 nM.

With `Cc1cc(-c2cn3nc(C(=O)N[C@H]4CCN(C5CC5)C4)c(C4CC4)c3c(=O)[nH]2)ccc1Cl` (single isomer, unassigned) [6-324], the IC50 is 0.97 nM.

As for `Cc1ccc(-c2cn3nc(C(=O)NC(C)c4ccc(O)cc4)cc3c(=O)[nH]2)cc1C` (single isomer, unassigned) [6-348], the IC50 was determined as 3.55 nM.

Consider `Cc1ccc(-c2cn3nc(C(=O)NC(C)c4ccc(O)cc4)cc3c(=O)[nH]2)cc1C` (single isomer, unassigned) [6-349], for which the IC50 is 0.88 nM.

For `Cc1ccc(-c2cn3nc(C(=O)NC4(c5ccc(F)cc5)CCN(C)C4)cc3c(=O)[nH]2)cc1C` (single isomer, unassigned) [6-363], the IC50 turned out to be 46 nM.

In the case of `Cc1ccc(-c2cn3nc(C(=O)NC4(c5ccc(F)cc5)CCN(C)C4)cc3c(=O)[nH]2)cc1C` (single isomer, unassigned) [6-364], the IC50 was found to be 6.45 nM.

As to `Cc1ccc(-c2cn3nc(C(=O)NCCC(O)C(F)(F)F)c(C4CC4)c3c(=O)[nH]2)cc1F` (single isomer, unassigned) [6-367], the IC50 amounted to 0.69 nM.

For the compound `Cc1ccc(-c2cn3nc(C(=O)NCCC(O)C(F)(F)F)c(C4CC4)c3c(=O)[nH]2)cc1F` (single isomer, unassigned) [6-368], the IC50 worked out at 0.87 nM.

Consider `Cc1ccc(-c2cn3nc(C(=O)NCC(O)C(F)F)c(C4CC4)c3c(=O)[nH]2)cc1F` (single isomer, unassigned) [6-371], for which the IC50 came to 2.7 nM.

With `Cc1ccc(-c2cn3nc(C(=O)NC(c4ccc(F)cc4)C4(O)CC4)c(C4CC4)c3c(=O)[nH]2)cc1F` (single isomer, unassigned) [6-382], the IC50 turned out to be 0.78 nM.

Take `Cc1ccc(-c2cn3nc(C(=O)NC(c4ccc(F)cc4)C4(O)CC4)c(C4CC4)c3c(=O)[nH]2)cc1F` (single isomer, unassigned) [6-383]: the IC50 stood at 1.6 nM.

As to `Cc1ccc(-c2cn3nc(C(=O)NC4CCN(CC(F)(F)F)C4)c(C4CC4)c3c(=O)[nH]2)cc1F` (single isomer, unassigned) [6-390], the IC50 was determined as 8.5 nM.

As to `Cc1ccc(-c2cn3nc(C(=O)NC4CCN(CC(F)(F)F)C4)c(C4CC4)c3c(=O)[nH]2)cc1F` (single isomer, unassigned) [6-391], the IC50 came to 3.3 nM.

For the compound `Cc1ccc(-c2cn3nc(C(=O)NCC(N)C(F)(F)F)c(C4CC4)c3c(=O)[nH]2)cc1F` (single isomer, unassigned) [6-396], the IC50 is 3.05 nM.

As to `Cc1ccc(-c2cn3nc(C(=O)NCC(N)C(F)(F)F)c(C4CC4)c3c(=O)[nH]2)cc1F` (single isomer, unassigned) [6-397], the IC50 worked out at 3.45 nM.

On to `CCN1CCC(NC(=O)c2nn3cc(-c4ccc(C)c(F)c4)[nH]c(=O)c3c2C2CC2)(C(F)(F)F)C1` (single isomer, unassigned) [6-405], for which the IC50 came out at 4.7 nM.

With `CCN1CCC(NC(=O)c2nn3cc(-c4ccc(C)c(F)c4)[nH]c(=O)c3c2C2CC2)(C(F)(F)F)C1` (single isomer, unassigned) [6-406], the IC50 was 23.5 nM.

In the case of `Cc1ccc(-c2cn3nc(C(=O)NCC(O)C(F)(F)F)c(C)c3c(=O)[nH]2)cc1F` (single isomer, unassigned) [6-410], the IC50 is 5.18 nM.

As to `Cc1ccc(-c2cn3nc(C(=O)NCC(O)C(F)(F)F)c(C)c3c(=O)[nH]2)cc1F` (single isomer, unassigned) [6-411], the IC50 stood at 32.5 nM.

Regarding `O=C(NCC(O)C(F)(F)F)c1nn2cc(-c3ccc(Cl)c(Cl)c3)[nH]c(=O)c2c1C1CC1` (single isomer, unassigned) [6-416], the IC50 was determined as 2.8 nM.
